Assay results published in patent US20250213532A1, “5-METHOXY-N,N-[…][…] THE TREATMENT OF BIPOLAR DISORDER” (GH RESEARCH IRELAND LIMITED, priority 2022, published 2025).

Tests used:
[1] = system: patients with clinically diagnosed postpartum depression (PPD); test: Clinical trial of inhaled 5-MeO-DMT in postpartum depression: MADRS; type: in vivo, human; conditions: one PPD patient; for MADRS Concentration Difficulties improvement / MADRS Concentration Difficulties score / MADRS Reduced appetite improvement / MADRS Reduced appetite score / MADRS Suicidal Thoughts improvement / MADRS Suicidal Thoughts score: baseline 0; for MADRS Inability to Feel improvement / MADRS Inability to Feel score / MADRS Lassitude improvement / MADRS Lassitude score: baseline 3; for MADRS Pessimistic Thoughts improvement / MADRS Pessimistic Thoughts score / MADRS Reported sadness improvement / MADRS Reported sadness score: baseline 4; for MADRS Apparent sadness improvement / MADRS Apparent sadness score / MADRS Inner Tension improvement / MADRS Inner Tension score / MADRS Reduced Sleep improvement / MADRS Reduced Sleep score: baseline 5
Excerpt: (§1) The patient completed all planned visit days.

[2] = system: patients with clinically diagnosed postpartum depression (PPD); test: Clinical trial of inhaled 5-MeO-DMT in postpartum depression: BPRS; type: in vivo, human; conditions: one PPD patient; for BPRS Blunted affect improvement / BPRS Blunted affect score / BPRS Conceptual disorganization improvement / BPRS Conceptual disorganization score / BPRS Disorientation improvement / BPRS Disorientation score / BPRS Grandiosity improvement / BPRS Grandiosity score / BPRS Hallucinatory behaviour improvement / BPRS Hallucinatory behaviour score / BPRS Hostility improvement / BPRS Hostility score / BPRS Mannerisms and Posturing improvement / BPRS Mannerisms and Posturing score / BPRS Motor retardation improvement / BPRS Motor retardation score / BPRS Suspiciousness improvement / BPRS Suspiciousness score / BPRS Uncooperativeness improvement / BPRS Uncooperativeness score / BPRS Unusual Thought Content improvement / BPRS Unusual Thought Content score: baseline 1; for BPRS Excitement improvement / BPRS Excitement score: baseline 2; for BPRS Emotional withdrawal improvement / BPRS Emotional withdrawal score: baseline 5; for BPRS Anxiety improvement / BPRS Anxiety score: baseline 7
Excerpt: as §1

## COc1ccc2[nH]cc(CCN(C)C)c2c1 [5-MeO-DMT]
[1]
  MADRS remission (total score equal or less than 10): fulfilled standard criteria
  MADRS response (at least 50% improvement from baseline): fulfilled standard criteria
[1]; 2 hr
  MADRS Concentration Difficulties improvement: 0
  MADRS Concentration Difficulties score: 0
  MADRS Reduced appetite improvement: 0
  MADRS Reduced appetite score: 0
  MADRS Suicidal Thoughts improvement: 0
  MADRS Suicidal Thoughts score: 0
  MADRS Inability to Feel improvement: 3
  MADRS Inability to Feel score: 0
  MADRS Lassitude improvement: 3
  MADRS Lassitude score: 0
  MADRS Pessimistic Thoughts improvement: 4
  MADRS Pessimistic Thoughts score: 0
  MADRS Reported sadness improvement: 4
  MADRS Reported sadness score: 0
  MADRS Apparent sadness improvement: 5
  MADRS Apparent sadness score: 0
  MADRS Inner Tension improvement: 5
  MADRS Inner Tension score: 0
  MADRS Reduced Sleep improvement: 0
  MADRS Reduced Sleep score: 5
[1]; Day 1
  MADRS Concentration Difficulties improvement: 0
  MADRS Concentration Difficulties score: 0
  MADRS Reduced appetite improvement: 0
  MADRS Reduced appetite score: 0
  MADRS Suicidal Thoughts improvement: 0
  MADRS Suicidal Thoughts score: 0
  MADRS Inability to Feel improvement: 3
  MADRS Inability to Feel score: 0
  MADRS Lassitude improvement: 3
  MADRS Pessimistic Thoughts improvement: 4
  MADRS Pessimistic Thoughts score: 0
  MADRS Reported sadness improvement: 4
  MADRS Reported sadness score: 0
  MADRS Apparent sadness improvement: 5
  MADRS Apparent sadness score: 0
  MADRS Inner Tension improvement: 5
  MADRS Inner Tension score: 0
  MADRS Reduced Sleep improvement: 5
  MADRS Reduced Sleep score: 0
[1]; Day 7
  MADRS Concentration Difficulties improvement: 0
  MADRS Concentration Difficulties score: 0
  MADRS Reduced appetite improvement: 0
  MADRS Reduced appetite score: 0
  MADRS Suicidal Thoughts improvement: 0
  MADRS Suicidal Thoughts score: 0
  MADRS Inability to Feel improvement: 3
  MADRS Inability to Feel score: 0
  MADRS Lassitude improvement: 3
  MADRS Lassitude score: 0
  MADRS Pessimistic Thoughts improvement: 4
  MADRS Pessimistic Thoughts score: 0
  MADRS Reported sadness improvement: 4
  MADRS Reported sadness score: 0
  MADRS Apparent sadness improvement: 5
  MADRS Apparent sadness score: 0
  MADRS Inner Tension improvement: 4
  MADRS Inner Tension score: 1
  MADRS Reduced Sleep improvement: 5
  MADRS Reduced Sleep score: 0
[1]; IDR 6 mg then 12 mg
  Durability of clinical response: sustained over the 7-day follow-up period
  Time to clinical response after administration: ≤ 2 h
[2]; Day 1
  BPRS Blunted affect improvement: 0
  BPRS Blunted affect score: 1
  BPRS Conceptual disorganization improvement: 0
  BPRS Conceptual disorganization score: 1
  BPRS Disorientation improvement: 0
  BPRS Disorientation score: 1
  BPRS Grandiosity improvement: 0
  BPRS Grandiosity score: 1
  BPRS Hallucinatory behaviour improvement: 0
  BPRS Hallucinatory behaviour score: 1
  BPRS Hostility improvement: 0
  BPRS Hostility score: 1
  BPRS Mannerisms and Posturing improvement: 0
  BPRS Mannerisms and Posturing score: 1
  BPRS Motor retardation improvement: 0
  BPRS Motor retardation score: 1
  BPRS Suspiciousness improvement: 0
  BPRS Suspiciousness score: 1
  BPRS Uncooperativeness improvement: 0
  BPRS Uncooperativeness score: 1
  BPRS Unusual Thought Content improvement: 0
  BPRS Unusual Thought Content score: 1
  BPRS Excitement improvement: 1
  BPRS Excitement score: 1
  BPRS Emotional withdrawal improvement: 4
  BPRS Emotional withdrawal score: 1
  BPRS Anxiety improvement: 6
  BPRS Anxiety score: 1
[2]; Day 1, baseline 6
  BPRS Depressive Mood improvement: 5
  BPRS Depressive Mood score: 1
  BPRS Guilt feelings improvement: 5
  BPRS Guilt feelings score: 1
  BPRS Somatic Concern improvement: 5
  BPRS Somatic Concern score: 1
  BPRS Tension score: 1
[2]; Day 7
  BPRS Blunted affect improvement: 0
  BPRS Blunted affect score: 1
  BPRS Conceptual disorganization improvement: 0
  BPRS Conceptual disorganization score: 1
  BPRS Disorientation improvement: 0
  BPRS Disorientation score: 1
  BPRS Grandiosity improvement: 0
  BPRS Grandiosity score: 1
  BPRS Hallucinatory behaviour improvement: 0
  BPRS Hallucinatory behaviour score: 1
  BPRS Hostility improvement: 0
  BPRS Hostility score: 1
  BPRS Mannerisms and Posturing improvement: 0
  BPRS Mannerisms and Posturing score: 1
  BPRS Motor retardation improvement: 0
  BPRS Motor retardation score: 1
  BPRS Suspiciousness improvement: 0
  BPRS Suspiciousness score: 1
  BPRS Uncooperativeness improvement: 0
  BPRS Uncooperativeness score: 1
  BPRS Unusual Thought Content improvement: 0
  BPRS Unusual Thought Content score: 1
  BPRS Excitement improvement: 1
  BPRS Excitement score: 1
  BPRS Emotional withdrawal improvement: 4
  BPRS Emotional withdrawal score: 1
  BPRS Anxiety improvement: 6
  BPRS Anxiety score: 1
[2]; Day 7, baseline 6
  BPRS Depressive Mood improvement: 5
  BPRS Depressive Mood score: 1
  BPRS Guilt feelings improvement: 5
  BPRS Guilt feelings score: 1
  BPRS Somatic Concern improvement: 5
  BPRS Somatic Concern score: 1
  BPRS Tension improvement: 5
  BPRS Tension score: 1
[2]; Discharge
  BPRS Blunted affect improvement: 0
  BPRS Blunted affect score: 1
  BPRS Conceptual disorganization improvement: 0
  BPRS Conceptual disorganization score: 1
  BPRS Disorientation improvement: 0
  BPRS Disorientation score: 1
  BPRS Grandiosity improvement: 0
  BPRS Grandiosity score: 1
  BPRS Hallucinatory behaviour improvement: 0
  BPRS Hallucinatory behaviour score: 1
  BPRS Hostility improvement: 0
  BPRS Hostility score: 1
  BPRS Mannerisms and Posturing improvement: 0
  BPRS Mannerisms and Posturing score: 1
  BPRS Motor retardation improvement: 0
  BPRS Motor retardation score: 1
  BPRS Suspiciousness improvement: 0
  BPRS Suspiciousness score: 1
  BPRS Uncooperativeness improvement: 0
  BPRS Uncooperativeness score: 1
  BPRS Unusual Thought Content improvement: 0
  BPRS Unusual Thought Content score: 1
  BPRS Excitement improvement: 1
  BPRS Excitement score: 1
  BPRS Emotional withdrawal improvement: 4
  BPRS Emotional withdrawal score: 1
  BPRS Anxiety improvement: 6
  BPRS Anxiety score: 1
[2]; Discharge, baseline 6
  BPRS Depressive Mood improvement: 5
  BPRS Depressive Mood score: 1
  BPRS Guilt feelings improvement: 5
  BPRS Guilt feelings score: 1
  BPRS Somatic Concern improvement: 5
  BPRS Somatic Concern score: 1
  BPRS Tension score: 1
